Key:
[1] = target: Dipeptidyl peptidase 1 (Homo sapiens, UniProt P53634); assay: Inhibition of human cathepsin C
[2] = Reduction in whole blood neutrophil elastase activity in healthy human subjects at 10 mg dosed daily via oral route; assay type: functional
[3] = Reduction in whole blood neutrophil elastase activity in healthy human subjects at 25 mg dosed daily via oral route; assay type: functional
[4] = Reduction in whole blood neutrophil elastase activity in healthy human subjects at 40 mg dosed daily via oral route; assay type: functional

Sequence of Dipeptidyl peptidase 1 (P53634 25-134 limits assumed): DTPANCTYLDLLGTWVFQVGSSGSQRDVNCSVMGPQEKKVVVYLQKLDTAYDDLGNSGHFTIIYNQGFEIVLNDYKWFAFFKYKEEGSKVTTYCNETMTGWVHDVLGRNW
Sequence of Dipeptidyl peptidase 1 (P53634 231-394 limits assumed): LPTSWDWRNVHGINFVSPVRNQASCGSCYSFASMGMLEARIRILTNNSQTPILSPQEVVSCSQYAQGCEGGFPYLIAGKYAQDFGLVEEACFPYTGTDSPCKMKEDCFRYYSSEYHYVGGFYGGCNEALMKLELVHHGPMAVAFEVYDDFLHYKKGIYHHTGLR
Sequence of Dipeptidyl peptidase 1 (P53634 395-463 limits assumed): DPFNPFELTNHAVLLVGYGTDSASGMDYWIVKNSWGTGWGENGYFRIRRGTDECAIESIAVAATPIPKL

Structure (SMILES)	IC50 [1] [nM]	inhibition (INH) [2] [%]	inhibition (INH) [3] [%]	inhibition (INH) [4] [%]
CC[C@H](N)C(=O)N[C@]1(C#N)C[C@@H]1c1ccc(-c2ccc(S(=O)(=O)N3CCN(C)CC3)cc2)cc1	15	–	–	–
Cn1c(=O)oc2ccc(-c3ccc(C[C@@H](C#N)NC(=O)[C@@H]4CNCCCO4)cc3)cc21 [BRENSOCATIB]	–	30	49	59

Source: ChEMBL document CHEMBL4665707, “Lung Protection by Cathepsin C Inhibition: A New Hope for COVID-19 and ARDS?” (J Med Chem, 2020)
